These results are taken from patent US5391540A, “Substituted pyridine compounds” (Rohm and Haas Company, priority 1993, dated 1995).

Test in all cases: Pre-emergent herbicidal activity (Table A)
Format in all cases: in vivo

One assay concerns Barnyardgrass. Conditions: Echinochloa crus-galli, pre-emergence, Bygr, 11.2 kg/ha, 10-14 days, read-out: herbicidal rating (% inhibition). The method, then:
(§1) The herbicidal ratings used in Tables A and B were assigned according to a scale based on the percent inhibition of each plant species. The herbicide rating symbols in Tables A and B are defined as follows: […]
(§2) One set of pre-emergent tests was conducted as follows:
(§3) Topsoil was placed in a pan and compacted to a depth of 0.95 to 1.27 cm. from the top of the pan. A predetermined number of seeds of each of several monocotyledonous and dicotyledonous annual plant species and/or vegetative propagules of various perennial plant species were placed on top of the soil. The soil required to level fill a pan after seeding or adding vegetative propagules was weighed into another pan. A known amount of the test compound dissolved or suspended in an organic solvent or water and applied in acetone or water as a carrier was thoroughly mixed with this cover soil, and the herbicide/soil mixture was used as a cover layer for the previously prepared pan.
(§4) The plant species usually regarded as weeds which were utilized in one set of pre-emergent activity tests, the data for which are shown in Table A, are identified by letter headings printed diagonally above the columns according to the following legend: […]

Another assay concerns Rhizome Johnsongrass. Conditions: Sorghum halepense, pre-emergence, Rhjg, 11.2 kg/ha, 10-14 days, read-out: herbicidal rating (% inhibition). How it is done: as §1, §2, §3, §4
The next assay deals with Yellow Nutsedge. Conditions: Cyperus, pre-emergence, Yens, 11.2 kg/ha, 10-14 days, read-out: herbicidal rating (% inhibition). How it is done:
as §1, §2, §3, §4

For the next assay, the system named is Canada thistle. The conditions noted are these: Cirsium arvense, pre-emergence, Cath, 11.2 kg/ha, 10-14 days, read-out: herbicidal rating (% inhibition). The method, then: as §1, §2, §3, §4
A further assay concerns Common Lambsquarters. The conditions noted are these: Chenopodium album, pre-emergence, Colq, 11.2 kg/ha, 10-14 days, read-out: herbicidal rating (% inhibition). The method, then: as §1, §2, §3, §4
Another assay relates to Pennsylvania Smartweed. Conditions: pre-emergence, Pesw, 11.2 kg/ha, 10-14 days, read-out: herbicidal rating (% inhibition). How it is done: as §1, §2, §3, §4
The test system of a further assay is Velvetleaf. Conditions: Abutilon theophrasti, pre-emergence, Vele, 11.2 kg/ha, 10-14 days, read-out: herbicidal rating (% inhibition). How it is done: as §1, §2, §3, §4
A further assay has as its system Quackgrass. Conditions: pre-emergence, Rhqg, 11.2 kg/ha, 10-14 days, read-out: herbicidal rating (% inhibition). The method, then:
as §1, §2, §3, §4

In the next assay the test system is Downy Brome. Conditions: Bromus tectorum, pre-emergence, Dobr, 11.2 kg/ha, 10-14 days, read-out: herbicidal rating (% inhibition). The method, then:
as §1, §2, §3, §4

A further assay concerns Cocklebur. The conditions noted are these: Xanthium strumarium, pre-emergence, Cobu, 11.2 kg/ha, 10-14 days, read-out: herbicidal rating (% inhibition). The method, then:
as §1, §2, §3, §4

The subject of another assay is Morningglory. The conditions noted are these: Ipomoea, pre-emergence, Mogl, 11.2 kg/ha, 10-14 days, read-out: herbicidal rating (% inhibition). The method, then: as §1, §2, §3, §4

Regarding `COC(=O)c1c(OC)nc(C(F)(F)F)c(C(=O)OC)c1CC(C)C` [Compound 2, 3,5-pyridinedicarboxylic acid, 2-methoxy-4-(2-methylpropyl)-6-(trifluoromethyl)-, dimethyl ester], the inhibition at 11200 g/ha in the assay on Barnyardgrass, in the assay with Rhizome Johnsongrass, in the assay with Yellow Nutsedge, with Canada thistle, in the assay on Common Lambsquarters and with Pennsylvania Smartweed was 75 to 100% in each case. For the same molecule, the inhibition at 11200 g/ha in the assay with Velvetleaf, with Quackgrass, in the assay with Downy Brome, in the assay with Cocklebur and with Morningglory was 75 to 100% each time.
As to `CCOC(=O)c1c(OCC)nc(C(F)(F)F)c(C(=O)OC)c1CC(C)C` [Compound 3, 3,5-pyridinedicarboxylic acid, 2-ethoxy-4-(2-methylpropyl)-6-(trifluoromethyl)-, 3-ethyl 5-methyl ester, hydrate (1:0.4)], the inhibition (as a rule, the change of the read-out against control, counted positive when it falls) at 11200 g/ha in the assay on Barnyardgrass lay within 75 to 100%; in the assay on Rhizome Johnsongrass, 0 to 24%; in the assay on Yellow Nutsedge it was 25 to 49%; with Canada thistle, 75 to 100%; in the assay with Common Lambsquarters, 75 to 100%; in the assay on Pennsylvania Smartweed, 50 to 74%. In addition, the inhibition at 11200 g/ha in the assay with Velvetleaf is 0 to 24%; in the assay on Quackgrass it was 75 to 100%; in the assay on Downy Brome it was 75 to 100%; in the assay on Cocklebur, 0 to 24%; with Morningglory, 50 to 74%.
In the case of `CCOC(=O)c1c(OC)nc(C(F)(F)F)c(C(=O)OC)c1CC(C)C` [Compound 4, 3,5-pyridinedicarboxylic acid, 2-methoxy-4-(2-methylpropyl)-6-(trifluoromethyl)-, 3-ethyl 5-methyl ester], the inhibition at 11200 g/ha in the assay with Barnyardgrass lay in the range of 75 to 100%; in the assay on Rhizome Johnsongrass it was 75 to 100%; in the assay on Yellow Nutsedge, 25 to 49%; with Canada thistle, 75 to 100%; with Common Lambsquarters it was 75 to 100%; in the assay on Pennsylvania Smartweed, 75 to 100%. Also, the inhibition at 11200 g/ha in the assay on Velvetleaf fell in the range of 75 to 100%; with Quackgrass, 75 to 100%; in the assay with Downy Brome it was 75 to 100%; in the assay with Cocklebur, 0 to 24%; in the assay with Morningglory, 75 to 100%.
On to `CCOC(=O)c1c(OC(C)C)nc(C(F)(F)F)c(C(=O)OC)c1CC(C)C` [Compound 5, 3,5-pyridinedicarboxylic acid, 2-(1-methylethoxy)-4-(2-methylpropyl)-6-(trifluoromethyl)-, 3-ethyl 5-methyl ester], for which the inhibition at 11200 g/ha in the assay with Barnyardgrass is 75 to 100%; with Rhizome Johnsongrass it was 75 to 100%; with Yellow Nutsedge, 0 to 24%; in the assay with Canada thistle, 0 to 24%; in the assay on Common Lambsquarters, 75 to 100%; in the assay with Pennsylvania Smartweed, 25 to 49%. For the same molecule, the inhibition at 11200 g/ha in the assay on Velvetleaf was in the range of 0 to 24%; in the assay with Quackgrass it was 50 to 74%; in the assay on Downy Brome, 75 to 100%; with Cocklebur, 0 to 24%; in the assay with Morningglory it was 0 to 24%.
For the molecule `CCOc1nc(C(F)(F)F)c(C(=O)OC)c(CC(C)C)c1C(=O)SC` [Compound 8, 3-pyridinecarboxylic acid, 6-ethoxy-4-(2-methylpropyl)-5-[(methylthio)carbonyl]-2-(trifluoromethyl)-, methyl ester], the inhibition at 11200 g/ha in the assay with Barnyardgrass lay within 75 to 100%; with Rhizome Johnsongrass, 0 to 24%; in the assay on Yellow Nutsedge, 0 to 24%; in the assay on Canada thistle, 0 to 24%; in the assay on Common Lambsquarters it was 75 to 100%; in the assay on Pennsylvania Smartweed it was 75 to 100%. In addition, the inhibition at 11200 g/ha in the assay on Velvetleaf lay in the range of 75 to 100%; with Quackgrass, 75 to 100%; in the assay on Cocklebur, 0 to 24%; in the assay with Morningglory, 75 to 100%.
As to `COC(=O)c1c(OC)nc(C(F)(F)F)c(C(=O)OC)c1C1CC1` [Compound 9, 3,5-pyridinedicarboxylic acid, 4-cyclopropy1-2-methoxy-6-(trifluoromethyl)-, dimethyl ester], the inhibition at 11200 g/ha in the assay with Barnyardgrass, with Rhizome Johnsongrass, in the assay with Yellow Nutsedge, with Canada thistle, in the assay with Common Lambsquarters and in the assay with Pennsylvania Smartweed was 75 to 100% in each case. The inhibition at 11200 g/ha with Velvetleaf lay within 75 to 100%; in the assay with Quackgrass it was 75 to 100%; in the assay with Downy Brome, 75 to 100%; with Cocklebur, 0 to 24%; in the assay with Morningglory, 75 to 100%.
For the molecule `CCOC(=O)c1c(C(F)(F)C(F)(F)F)nc(OC)c(C(=O)OC)c1CC(C)C` [Compound 11, 3,5-pyridinedicarboxylic acid, 2-methoxy-4-(2-methylpropyl)-6-(pentafluoroethyl)-, 5-ethyl 3-methyl ester], the inhibition at 11200 g/ha lay within 75 to 100% in the assay on Barnyardgrass; 0 to 24% with Rhizome Johnsongrass; 75 to 100% in the assay on Yellow Nutsedge; 25 to 49% with Canada thistle; 75 to 100% in the assay on Common Lambsquarters; 75 to 100% in the assay on Pennsylvania Smartweed. For the same molecule, the inhibition at 11200 g/ha lay in the range of 25 to 49% in the assay on Velvetleaf; 75 to 100% in the assay with Quackgrass; 75 to 100% with Downy Brome; 0 to 24% in the assay with Cocklebur; 50 to 74% with Morningglory.
On to `COc1nc(C(F)(F)F)c(C(=O)SC)c(C2CC2)c1C(=O)SC` [Compound 12, 3,5-pyridinedicarbothioic acid, 4-cyclopropy1-2-methoxy-6-(trifluoromethyl)-, S,S-dimethyl ester], for which the inhibition at 11200 g/ha in the assay on Barnyardgrass was 75 to 100%; in the assay with Rhizome Johnsongrass, 0 to 24%; with Yellow Nutsedge it was 25 to 49%; with Canada thistle, 25 to 49%; with Common Lambsquarters, 75 to 100%; in the assay on Pennsylvania Smartweed it was 75 to 100%. The inhibition at 11200 g/ha in the assay with Velvetleaf lay in the range of 75 to 100%; in the assay on Quackgrass it was 75 to 100%; in the assay on Downy Brome, 75 to 100%; with Cocklebur it was 25 to 49%; in the assay with Morningglory it was 75 to 100%.
As for `CCOc1nc(C(F)(F)F)c(C(=O)OC)c(CC(C)C)c1C(=O)N(C)C` [Compound 17, 3-pyridinecarboxylic acid, 5-[(dimethylamino)carbony]-6-ethoxy-4-(2-methylpropyl)-2-(trifluoromethyl)-, methyl ester], the inhibition at 11200 g/ha in the assay with Barnyardgrass was in the range of 75 to 100%; in the assay with Rhizome Johnsongrass, 0 to 24%; with Yellow Nutsedge it was 0 to 24%; in the assay with Canada thistle, 0 to 24%; in the assay on Common Lambsquarters it was 50 to 74%; in the assay with Pennsylvania Smartweed, 0 to 24%. Further, the inhibition at 11200 g/ha in the assay on Velvetleaf, with Quackgrass, in the assay with Cocklebur and in the assay with Morningglory was 0 to 24% each time.
For `CCOc1nc(C(F)(F)F)c(C(=O)OC)c(CC(C)C)c1C(=O)O` [Compound 18, 3,5-pyridinedicarboxylic acid, 2-ethoxy-4-(2-methylpropyl)-6-(trifluoromethyl)-, 5-methyl ester], the inhibition at 11200 g/ha with Barnyardgrass lay within 0 to 24%; in the assay on Rhizome Johnsongrass it was 0 to 24%; in the assay with Yellow Nutsedge, 0 to 24%; in the assay with Canada thistle, 0 to 24%; in the assay on Common Lambsquarters, 50 to 74%; in the assay on Pennsylvania Smartweed, 0 to 24%. Also, the inhibition at 11200 g/ha lay within 0 to 24% with Velvetleaf, 0 to 24% with Quackgrass, 25 to 49% in the assay on Cocklebur and 0 to 24% with Morningglory.
On to `CCOc1nc(C(F)(F)F)c(C(=O)SC)c(CC(C)C)c1C(=O)SC` [Compound 19, 3,5-pyridinedicarbothioic acid, 2-ethoxy-4-(2-methylpropyl)-6-(trifluoromethyl)-, S,S-dimethyl ester], for which the inhibition at 11200 g/ha lay in the range of 75 to 100% with Barnyardgrass; 0 to 24% with Rhizome Johnsongrass; 0 to 24% with Yellow Nutsedge; 25 to 49% with Canada thistle; 75 to 100% in the assay with Common Lambsquarters; 75 to 100% in the assay on Pennsylvania Smartweed. Moreover, the inhibition at 11200 g/ha lay in the range of 75 to 100% in the assay with Velvetleaf, 75 to 100% in the assay with Quackgrass, 25 to 49% in the assay on Cocklebur and 50 to 74% in the assay with Morningglory.
